The source of these data is patent EP0332946B1, “The dipeptide L-pyroglutamyl-L-cysteine, having a high anti-cataractogenic activity, and pharmaceutical compositions containing the same” (S.I.F.I. Società Industria Farmaceutica Italiana S.p.A., priority 1988, dated 1993).

Data set [1] concerns male New-Zealand rabbits. The data set can be described thus: Toxicity (systemic tolerability) after intraperitoneal injection. The data set is classed as in vivo. On the procedure:
The systemic tolerability of PGC has been studied also after acute administration by means of intraperitoneal injection.
10 rabbits have received the substance (400 mg/kg) injected intraperitoneally.
24 hours after the administration of the product, the following examination have been carried out on urine and blood: • blood cell (red and white) count • determination of glycemia and acotemia; • evaluation of SGOT and SGPT transaminases

In another data set the test system is Male albino Wistar rats. Nature of the data set: Cataract from tryptophan deficiency (in vivo experimental cataract model, slit lamp evaluation). Conditions: rats on tryptophan-deficient diet, 30 days. On the procedure: Said rats have been fed a synthetic diet devoid of tryptophan for a 30 days period and divided in three groups: the first animal group has been administered PGC subcutaneously at a dosage of 1 mg/kg in buffer solution, the second group has been administered a 10 mg/kg doses, whilst the animals of the third group have been injected only buffer solution.
The conditions of the various eye sections : conjunctiva, cornea, interior chamber, lens and vitreous humor have been evaluated at the slit lamp.
Especially the localisation and the degree of lens opaqueness have been scrutinized and documented by means of photographs.
It was possible to observe opaqueness predominantly at the level at the posterior capsule and there was also evidence of an initial sclerosis of the nucleus. No further alterations either at the level of the anterior segment or of the posterior segment have been observed.

The subject of the next data set is rat lenses. The data set can be described thus: Experimental model of in vitro cataract (isolated lenses incubated in high-glucose culture broth). Conditions: lenses treated with PGC 1M; 55.5 mM glucose. The data set is classed as cell-based, rats. Here is the method: Male albino Wistar rats having an average weight of 180 g have been used. After decapitation, both eye bulbs have been enucleated and the lenses have been removed from the back. The isolated lenses have been incubated at 37°C during 5 days in culture broth 199 containing 15% of foetal bovine serum (Laboratorio Gebco) and a 55.5 mM concentration of glucose. PGC has been added at a 1M concentration into the culture broth of only some lenses. The observations have been carried out at the 3rd and 5th day with the use of a stereo microscope and a Nikon camera with annular flash.
It can be observed that in the control lenses the opaqueness development begins after only 72 hours of incubation and is complete after 120 hours. In the lenses treated with PGC low levels of opaqueness can not be observed before 120 hours of treatment.

For data set [2], the system named is male New-Zealand rabbits. As to conditions: rabbit, in vivo.
Data set [3] deals with Female albino Sprague-Dowely rats. The data set can be described thus: Cataract due to hypergalactosemic diet (in vivo experimental cataract model, slit lamp evaluation). As to conditions: rats on 50% galactose diet, 20 days; PGC 10% in buffer, one drop twice a day into the conjunctive sac. The text has this:
Female albino Sprague-Dowely rats having an average weight of 70 g have been used. Said rats have been fed a diet consisting of 50% galactose and the remaining 50% standard rat food during a 20 days period. The animals have been divided in two groups: the first animal group has been administered PGC (10% in buffer) by instilling one drop twice a day into the conjuctive sac, both sides; the second group, consisting of control animals, has been administered buffer only.
The conditions of the various eye sections : conjunctiva, cornea, interior chamber, lens and vitreous humor have been evaluated at the slit lamp. The examination has been carried out before the beginning of the treatment and then on the 5th, 10th, 15th and 20th day.

Molecules are shown by their SMILES. Where two headings read alike, the source gives them in different places. Non-standard residues stand in square brackets, D forms with d. Residues, ends and D or L forms follow the SMILES beside them. pGlu = O=C1CC[C@@H](C(=O)O)N1

For the molecule `O=C1CC[C@@H](C(=O)N[C@@H](CS)C(=O)O)N1` [PGC, L-pyroglutamyl-L-cysteine] ([pGlu]-Cys-OH), the “changes of the hematological or hematochemical constants or of the urine composition” value is given as “not shown any changes” with male New-Zealand rabbits [1] (PGC 400 mg/kg intraperitoneally, 24 hours after administration, urine and blood examination); “not shown any changes” in the data set on male New-Zealand rabbits [2]. Besides, the “growth modification relative to control animals” value with male New-Zealand rabbits [1] (PGC intraperitoneally) and in the data set on male New-Zealand rabbits [2] was “No growth modification” each time. The “BODY WEIGHT INCREASE (KG) ON DAY 0” value stood at 1.45 ± 0.05 kg in the data set with male New-Zealand rabbits [1] (PGC intraperitoneally (400 mg/kg), day 0 (baseline), average ± SD, n=10) and 1.60 ± 0.08 kg in the data set with male New-Zealand rabbits [2]. The “BODY WEIGHT INCREASE (KG) ON DAY 20” value in the data set on male New-Zealand rabbits [1] (PGC intraperitoneally (400 mg/kg), day 20, average ± SD, n=10) was 2.25 ± 0.08 kg; in the data set on male New-Zealand rabbits [2], 2.34 ± 0.12 kg. In addition, the lens opaqueness entry in the data set with Male albino Wistar rats (PGC 1 mg/kg subcutaneously) and in the data set on Male albino Wistar rats (PGC 10 mg/kg subcutaneously) was “perfectly transparent” in each case. In addition, in the data set on rat lenses, the “time before low levels of opaqueness can be observed” value was not below 120 h. Further, the “effect on the formation of lens opaqueness” value in data set [3] is “protective effect”. For the same molecule, the “percent of opaque lenses as a whole in the treated animals relative to the controls” value in data set [3] came to 60%.
